Data reported in US6211244A, “Calcium receptor-active compounds” (priority 1995, dated 2001).

Assays:
human calcium receptor = biological target: T1, human calcium receptor (Homo sapiens, UniProt P41180, R990G); assay: increases in [Ca^2+ ]i in HEK-293 cells expressing the human calcium receptor (fura-2 loaded HEK 293/pHuPCaR4.0 cells), % activity; format: cell-based
T1 construct: expressed in transfected cells; host or cells: HEK 293
T1 sequence (P41180 20-1078 R990G): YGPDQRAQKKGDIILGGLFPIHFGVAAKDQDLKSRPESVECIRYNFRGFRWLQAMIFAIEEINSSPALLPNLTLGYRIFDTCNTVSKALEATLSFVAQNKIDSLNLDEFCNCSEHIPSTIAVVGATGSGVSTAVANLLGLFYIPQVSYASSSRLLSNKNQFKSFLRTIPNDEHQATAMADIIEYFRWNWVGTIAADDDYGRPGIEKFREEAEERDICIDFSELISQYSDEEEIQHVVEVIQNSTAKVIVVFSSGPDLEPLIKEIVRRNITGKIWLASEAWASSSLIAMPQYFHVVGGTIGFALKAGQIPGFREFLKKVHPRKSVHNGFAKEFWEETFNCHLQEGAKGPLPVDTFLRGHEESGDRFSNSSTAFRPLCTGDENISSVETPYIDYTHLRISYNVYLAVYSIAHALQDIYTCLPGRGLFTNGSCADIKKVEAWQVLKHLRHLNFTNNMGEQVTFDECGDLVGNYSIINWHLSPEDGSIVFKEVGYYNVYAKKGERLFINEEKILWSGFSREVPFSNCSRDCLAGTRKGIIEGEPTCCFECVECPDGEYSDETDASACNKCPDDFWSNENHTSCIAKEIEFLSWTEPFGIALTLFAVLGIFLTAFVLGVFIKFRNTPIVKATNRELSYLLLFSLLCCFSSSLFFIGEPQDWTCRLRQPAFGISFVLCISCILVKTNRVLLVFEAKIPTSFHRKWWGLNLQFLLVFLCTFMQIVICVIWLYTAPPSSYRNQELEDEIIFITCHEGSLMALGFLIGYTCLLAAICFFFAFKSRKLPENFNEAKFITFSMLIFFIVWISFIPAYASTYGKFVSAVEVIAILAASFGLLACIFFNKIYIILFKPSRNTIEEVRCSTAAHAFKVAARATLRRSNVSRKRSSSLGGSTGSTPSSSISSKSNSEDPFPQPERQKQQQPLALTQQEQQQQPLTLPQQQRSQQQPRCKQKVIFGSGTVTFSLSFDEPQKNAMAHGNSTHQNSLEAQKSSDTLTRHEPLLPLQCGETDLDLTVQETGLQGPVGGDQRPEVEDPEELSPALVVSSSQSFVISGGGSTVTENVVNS

[1] = test system: Parathyroid Cell Calcium Receptor; assay: EC50 in parathyroid cells or HEK 293/pHuPCaR4.0 cells loaded with fura-2; format: cell-based, calves and humans; conditions: parathyroid cells or HEK 293/pHuPCaR4.0, fura-2; cell type not given per value
Procedure: This section describes procedures used to obtain parathyroid cells from calves and humans, and to use the parathyroid cells to measure calcium receptor activity.
Human parathyroid glands, were obtained from patients undergoing surgical removal of parathyroid tissue for primary or uremic hyperparathyroidism (uremic HPT), and were treated similarly to bovine tissue.
Glands were trimmed of excess fat and connective tissue and then minced with fine scissors into cubes approximately 2-3 mm on a side. Dissociated parathyroid cells were prepared by collagenase digestion and then purified by centrifugation in Percoll buffer.
Primary culture also has the advantage that cells can be labeled with isotopes to near isotopic equilibrium, as is necessary for studies involving measurements of inositol phosphate metabolism.
ITS+ is a premixed solution containing insulin, transferrin, selenium, and bovine serum albumin (BSA)-linolenic acid (Collaborative Research, Bedford, Mass.). The cells were then transferred to plastic flasks (75 or 150 cm^2; Falcon) and incubated overnight at 37° C. in a humid atmosphere of 5% CO2. No serum is added to these overnight cultures, since its presence allows the cells to attach to the plastic, undergo proliferation, and dedifferentiate.
The cells were then pelleted, resuspended in the same buffer, but lacking the ester, and incubated a further 15 minutes at 37° C. The cells were subsequently washed twice with PCB containing 0.5 mM CaCl2 and 0.5% BSA and maintained at room temperature (about 20° C.). Immediately before use, the cells were diluted five-fold with prewarmed 0.5 mM CaCl2 -PCB to obtain a final BSA concentration of 0.1%. The concentration of cells in the cuvette used for fluorescence recording was 1-2×10^6 /ml.
The fluorescence of indicator-loaded cells was measured at 37° C. in a spectrofluorimeter (Biomedical Instrumentation Group, University of Pennsylvania, Philadelphia, Pa.) equipped with a thermostated cuvette holder and magnetic stirrer using excitation and emission wavelengths of 340 and 510 nm, respectively. […] To correct the calibration for dye leakage, cells were placed in the cuvette and stirred at 37° C. for 2-3 minutes. The cell suspension was then removed, the cells pelleted, and the supernatant returned to a clean cuvette. […] This estimate was subtracted from the apparent Fmin.
HEK 293 cells transfected with pHuPCaR4.0 were loaded with fura-2 by incubating the cells in Dulbecco's modified Eagle's media buffered with 20 mM HEPES containing about 5 μM […] for one hour at room temperature. Cell were then rinsed with Hank's balanced salt solution buffered with 20 mM HEPES containing 1 mM CaCl2 and 1 mM MgCl2. Compounds to be tested were then added to the cells and fluorescence was measured (excitation and emission wavelengths of 340 and 510 nm, respectively).

[2] = test system: human parathyroid cell calcium receptor; assay: stimulation of calcium-activated chloride currents in Xenopus oocytes injected with calcium receptor cRNA; format: cell-based; conditions: calcium-activated chloride current
Procedure: Representative cDNA inserts for both size classes were subcloned into the plasmid vector pBluescript SK. Linearization followed by in vitro transcription using T7 RNA polymerase produced cRNA transcripts. The cRNA transcripts were injected into Xenopus oocytes (150 ng/μl RNA; 50 nl/oocyte) for functional analysis. Following incubation periods of 2-4 days, the oocytes were assayed for the presence of functional calcium receptors. Both clone types gave rise to functional calcium receptors as assessed by the stimulation of calcium-activated chloride currents upon addition of appropriate calcium receptor agonists. […] Thus, both clones encode a functional, human parathyroid cell calcium receptor.
In addition, pHuPCaR4.0 encodes glutamine (Gln) at aa#925 and glycine (Gly) at position 990 whereas pHuPCaR5.2 encodes arg (Arg) at both equivalent positions. The human CaR gene encodes for Gln and Arg, respectively, at these positions. The difference between the pHuPCaR4.0 cDNA compared to human DNA appears to represent a true sequence polymorphism within the human population while the single base change in pHuPCaR5.2 probably reflects a mutation which occurred during its cloning. […] However, it is possible that these two receptor isoforms are functionally and/or pharmacologically distinct.

[3] = test system: HuPCaR 5.2 calcium receptor; assay: fluorescence ([Ca^2+ ]i) in HEK 293 cells transfected with Cep4B containing the HuPCaR 5.2 insert; format: cell-based, human; conditions: Ca^2+ 10 mM, Mg^2+ 20 mM; 37° C.
Procedure: Clonal cell lines that stably express the two human and the bovine calcium receptors have been isolated. Calcium receptor cDNAs were subcloned in two different, commercially available expression vectors; pMSG (obtained from Pharmacia) and Cep4B (obtained from Invitrogen). The first vector contains the selectable marker gene for xanthine-guanine phosphoribosyltransferase (gpt) allowing stably transfected cells to overcome the blockade of the purine biosynthetic pathway imposed by addition of 2 μg/ml aminopterin and 25 μg/ml mycophenolic acid. The second vector encodes a gene conferring resistance to the antibiotic hygromycin (used at 200 μg/ml). […]
Cells obtained from the pool of hygromycin selected HEK 293 cells transfected with Cep4B containing the HuPCaR 5.2 insert were plated on collagen coated Aklar squares which had been placed into individual wells of 12-well tissue culture plates. […] Measurements of fluorescence in response to calcium receptor agonists were performed at 37° C. in a spectrofluorimeter using excitation and emission wavelengths of 340 and 510 nm, respectively. For signal calibration, Fmax was determined after addition of ionomycin (40 μM) and the apparent Fmin was determined by addition of 0.3 M EGTA, 2.5 M Tris-HCl; pH 10.

calcium receptor = conditions: cited from earlier work
human subjects = assay: pharmacological activity in human subjects after oral doses; format: in vivo; conditions: 10-400 mg oral doses
Excerpt: Proper dosing can also be carried out using standard techniques. […] Thus, the glucuronide conjugate of 17Q may be exerting some beneficial effect.

SMILES | % activity (human calcium receptor; 33 ng/mL) [%] | % activity (human calcium receptor; 330 ng/mL) [%] | EC50 [1] [nM] | activation of oocyte-expressed calcium receptor [2] | increases in [Ca^2+ ]i [3] | binding site on the calcium receptor (calcium receptor) | pharmacological activity in human subjects (human subjects)
COc1ccc([C@@H](C)N[C@H](C)c2cccc3ccccc23)cc1Cl [Compound 17X, (R,R)-N-(1-Ethyl-4'-methoxy-3'-chlorophenyl)-1-(1-naphthylethyl) amine] | 93 | 105 | 20 | – | – | – | –
COc1ccc(CCCN[C@H](C)c2cccc(OC)c2)cc1 [Compound 20I] | 52 | 87 | > 1000 | – | – | – | –
COc1cccc([C@@H](C)NCCCc2ccc(OC)c(OC)c2)c1 [Compound 20J] | 48 | 80 | > 3000 | – | – | – | –
COc1cccc([C@@H](C)N[C@H](C)CCc2ccccc2)c1 [Compound 21D, (R,R)-N-(4-phenyl-2-butyl)-1-(3-methoxyphenyl)ethylamine] | 75 | 104 | 3000 | – | – | – | –
C[C@H](CCc1ccccc1)N[C@H](C)c1cccc2ccccc12 [Compound 21F, (R,R)-N-(4-phenyl-2-butyl)-1-(1-naphthyl)etbylamine] | 85 | 109 | 380 | – | – | – | –
C[C@@H](CCc1ccccc1)N[C@H](C)c1cccc2ccccc12 [Compound 21G] | 63 | 88 | 1100 | – | – | – | –
COc1cccc([C@@H](C)NCCCc2ccccc2)c1 [NPS R-467] | – | – | – | activated the oocyte-expressed receptor at about the same concentrations known to be effective for the native parathyroid cell receptor | Robust increases in [Ca^2+ ]i | binds to the calcium receptor at a different site (i.e., an allosteric site) than extracellular calcium | –
COc1cccc([C@@H](C)NCCCc2ccccc2Cl)c1 [NPS R-568, reference compound] | 69 | 95 | 600 | activated the oocyte-expressed receptor at about the same concentrations known to be effective for the native parathyroid cell receptor | – | – | showed pharmacological activity in human subjects
